Laboratory results as given in BindingDB's records for doi:10.1111/cbdd.12118 (Bombay College of Pharmacy, 2013).

What follows are compounds tested against T1, Enoyl-acyl carrier reductase (Plasmodium falciparum, UniProt Q9BH77) (assay: Fabl Assay). Conditions: pH 7.4.
T1 sequence (Q9BH77 whole entry): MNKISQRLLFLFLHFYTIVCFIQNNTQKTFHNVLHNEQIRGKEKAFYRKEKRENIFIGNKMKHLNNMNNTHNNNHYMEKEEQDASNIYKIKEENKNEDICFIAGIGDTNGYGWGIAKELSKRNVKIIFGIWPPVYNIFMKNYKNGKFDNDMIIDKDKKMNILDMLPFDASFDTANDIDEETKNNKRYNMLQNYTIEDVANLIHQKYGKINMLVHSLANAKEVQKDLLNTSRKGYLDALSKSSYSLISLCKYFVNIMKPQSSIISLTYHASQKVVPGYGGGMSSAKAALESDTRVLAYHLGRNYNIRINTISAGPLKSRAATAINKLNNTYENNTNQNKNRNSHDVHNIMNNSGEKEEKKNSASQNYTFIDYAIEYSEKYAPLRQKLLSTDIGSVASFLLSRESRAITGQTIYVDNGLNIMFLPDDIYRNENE
Excerpt: Inhibition assay using pfENR.

Going from `O=C(CNc1ccccc1)N/N=C/c1ccccc1Cl` [Phenylaminoacetic acid benzylidene hydrazine analog, 1] to `O=C(CNc1ccccc1)N/N=C/c1ccccc1O` [Phenylaminoacetic acid benzylidene hydrazine analog, 10], the IC50 rises from 90 µM to over 185 µM.

`COc1ccc(/C=N/NC(=O)CNc2ccccc2)cc1OC` [Phenylaminoacetic acid benzylidene hydrazine analog, 2] and `COc1ccc(/C=N/NC(=O)CNc2ccc(Cl)cc2)cc1OC` [Phenylaminoacetic acid benzylidene hydrazine analog, 3] cannot be ordered by IC50: over 159 µM for the first, over 143 µM for the second.

Compared with `O=C(CNc1ccc(Cl)cc1)N/N=C/c1ccccc1` [Phenylaminoacetic acid benzylidene hydrazine analog, 4], `O=C(CNc1cccc(Cl)c1)N/N=C/c1ccccc1` [Phenylaminoacetic acid benzylidene hydrazine analog, 19] is 17-fold higher in IC50: 10 µM for the first, 173 µM for the second. The first is the more potent here.

Compared with `O=C(CNc1ccc(F)cc1)N/N=C/c1ccccc1O` [Phenylaminoacetic acid benzylidene hydrazine analog, 6], `O=C(CNc1ccc(Cl)cc1)N/N=C/c1ccccc1O` [Phenylaminoacetic acid benzylidene hydrazine analog, 16] is higher in IC50: 12 µM for the first, over 164 µM for the second. The first is the more potent here.

First: CN(C)c1ccc(/C=N/NC(=O)CNc2ccc(F)cc2)cc1 [Phenylaminoacetic acid benzylidene hydrazine analog, 7]
Second: CN(C)c1ccc(/C=N/NC(=O)CNc2ccccc2)cc1 [Phenylaminoacetic acid benzylidene hydrazine analog, 11]
The IC50 of the first is lower: 8 µM for the first, over 168 µM for the second. The first is the more potent here.

First: O=C(CNc1ccccc1)N/N=C/c1ccccc1 [Phenylaminoacetic acid benzylidene hydrazine analog, 8]
Second: O=C(CNc1ccccc1)N/N=C/c1cccc(Br)c1 [Phenylaminoacetic acid benzylidene hydrazine analog, 9]
The IC50 of the first is 2.2-fold higher: 197 µM for the first, 90 µM for the second. The second is the more potent here.

Going from `O=C(CNc1cccc(F)c1Cl)N/N=C/c1ccccc1O` [Phenylaminoacetic acid benzylidene hydrazine analog, 12] to `O=C(CNc1cccc(F)c1Cl)N/N=C/c1ccccc1Cl` [Phenylaminoacetic acid benzylidene hydrazine analog, 14], the IC50 falls from over 155 µM to 29 µM.

`O=C(CNc1cccc(F)c1Cl)N/N=C/c1ccccc1` [Phenylaminoacetic acid benzylidene hydrazine analog, 13] and `O=C(CNc1cccc(F)c1Cl)N/N=C/c1cccc(Br)c1` [Phenylaminoacetic acid benzylidene hydrazine analog, 15] cannot be ordered by IC50: over 163 µM for the first, over 129 µM for the second.

Going from `O=C(CNc1ccc(Cl)cc1)N/N=C/c1cccc(Br)c1` [Phenylaminoacetic acid benzylidene hydrazine analog, 17] to `O=C(CNc1cccc(Cl)c1)N/N=C/c1cccc(Br)c1` [Phenylaminoacetic acid benzylidene hydrazine analog, 21], the IC50 rises from 7 µM to 163 µM (23-fold).

Going from `O=C(CNc1ccc(F)cc1)N/N=C/c1ccccc1Cl` [Phenylaminoacetic acid benzylidene hydrazine analog, 18] to `O=C(CNc1cccc(Cl)c1)N/N=C/c1ccccc1Cl` [Phenylaminoacetic acid benzylidene hydrazine analog, 20], the IC50 falls from 163 µM to 77 µM (2.1-fold). The second is the more potent here.
